According to article PMC11729428, “New Potent Inhibitor of Transforming Growth Factor-Beta (TGFβ) Signaling that is Efficacious against Microsatellite Stable Colorectal Cancer Metastasis in Combination with Immune Checkpoint Therapy in Mice” (ACS Pharmacology & Translational Science, 2024):
Where two headings read alike, the source gives them in different places.

Key:
hERG potassium channel = hERG potassium channel (Homo sapiens, UniProt Q12809); assay: hERG automated patch clamp on CHO-K1 cells; settings: micromolar concentrations
Sequence of hERG potassium channel (Q12809 whole entry): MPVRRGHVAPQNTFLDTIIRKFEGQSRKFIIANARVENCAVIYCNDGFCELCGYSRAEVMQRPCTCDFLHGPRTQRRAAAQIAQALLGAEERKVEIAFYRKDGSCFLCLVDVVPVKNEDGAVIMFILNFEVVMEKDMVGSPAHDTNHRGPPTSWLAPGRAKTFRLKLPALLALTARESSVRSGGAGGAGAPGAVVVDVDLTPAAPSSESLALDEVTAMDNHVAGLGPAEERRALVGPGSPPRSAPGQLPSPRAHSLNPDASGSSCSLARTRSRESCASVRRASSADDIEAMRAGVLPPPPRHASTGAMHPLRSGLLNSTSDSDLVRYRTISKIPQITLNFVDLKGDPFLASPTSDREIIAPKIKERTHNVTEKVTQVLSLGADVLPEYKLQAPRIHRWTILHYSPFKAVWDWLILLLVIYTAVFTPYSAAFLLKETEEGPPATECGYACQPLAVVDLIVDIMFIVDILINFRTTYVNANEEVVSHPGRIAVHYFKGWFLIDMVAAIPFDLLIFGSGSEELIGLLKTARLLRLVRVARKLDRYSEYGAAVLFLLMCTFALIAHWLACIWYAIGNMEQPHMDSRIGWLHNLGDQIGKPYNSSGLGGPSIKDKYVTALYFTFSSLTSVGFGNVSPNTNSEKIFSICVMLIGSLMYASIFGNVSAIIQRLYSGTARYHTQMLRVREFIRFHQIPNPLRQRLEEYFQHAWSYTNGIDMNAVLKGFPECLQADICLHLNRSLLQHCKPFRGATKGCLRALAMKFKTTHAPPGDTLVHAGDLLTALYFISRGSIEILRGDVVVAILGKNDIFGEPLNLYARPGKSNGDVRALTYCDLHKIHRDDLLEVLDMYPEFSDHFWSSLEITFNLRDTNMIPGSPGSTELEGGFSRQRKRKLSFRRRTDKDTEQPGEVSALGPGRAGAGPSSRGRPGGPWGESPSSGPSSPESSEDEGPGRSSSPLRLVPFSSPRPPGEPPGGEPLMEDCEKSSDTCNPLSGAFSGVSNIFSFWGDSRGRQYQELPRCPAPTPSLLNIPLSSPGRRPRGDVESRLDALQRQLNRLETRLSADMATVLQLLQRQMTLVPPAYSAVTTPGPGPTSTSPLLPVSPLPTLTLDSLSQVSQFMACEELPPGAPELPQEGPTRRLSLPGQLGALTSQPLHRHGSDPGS

[1] = tested on: TGFβ targets (phospho-SMAD2, CTHRC1, Caldesmon); assay: Protein expression of TGFβ targets in established liver metastases; type: in vivo; settings: mice with established liver metastases
Source text: (Figure S4). […] Moreover, these mice were resistant to immune checkpoint therapy like human patients with pMMR/MSS CRC are in the clinic.[5],[33]

ALK5 (TGFBR1) = target: T1, ALK5 (TGFBR1) (Homo sapiens, UniProt P36897, T204D); assay: Radiometric in vitro kinase activity assay (Kinase Profiler); type: biochemical
T1 sequence (P36897 200-503 T204D): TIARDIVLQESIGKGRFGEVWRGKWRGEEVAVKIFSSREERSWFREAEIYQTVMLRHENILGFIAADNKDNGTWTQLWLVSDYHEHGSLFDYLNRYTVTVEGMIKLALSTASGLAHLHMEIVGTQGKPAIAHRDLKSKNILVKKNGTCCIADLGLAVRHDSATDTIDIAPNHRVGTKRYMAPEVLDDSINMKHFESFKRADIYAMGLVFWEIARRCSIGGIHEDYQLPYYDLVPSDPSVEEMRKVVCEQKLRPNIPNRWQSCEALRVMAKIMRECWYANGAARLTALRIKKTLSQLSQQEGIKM
Protocol: (§1) 5. Methods for In vitro characterizations of HYL001
Kinase affinity and selectivity […]
The activity, measured as IC50, of inhibitors was determined by radiometric γ-33P-ATP-mediated in vitro phosphorylation assays, using the Kinase Profiler service from Eurofins Pharma Discovery Services (Wolverhampton, UK) and Eurofins Cerep (Celle L’Evescault, France). Compounds, prepared in 100% DMSO, were tested using a 9-point curve with half -log serial dilutions (1–10,000 nM). […]

[2] = tested on: panel of key proteins (cell receptors, neurotransmitter transporters, and ion channels); assay: In vitro safety pharmacology, binding (SafetyScreen 44); settings: 10 μM HYL001
Protocol: To identify potential adverse off-target drug interactions and derisk the development of HYL001 as a drug,[22] we performed binding and enzymatic inhibition assays with a panel of key proteins (mainly cell receptors, neurotransmitter transporters, and ion channels). […]
analysis by LC-MS/MS, using MRM mode. […]
related to phase I and phase II metabolism, respectively.
The PARs were used for calculation of metabolic stability. The 0 min area ratio was considered as 100%. The […]
incubation volume / number of cells (in millions) x K e. To calculate into full body context, the values of 120 […]
In vitro safety pharmacology […]
compared with historical values determined at Eurofins. Binding was defined as the % inhibition of the signal […]
enzyme activity. […] Results showing
The tail current amplitude, induced by a one […]
and expressed as % inhibition.
The Ames test was performed at Xenomatrix (Allschwil, Switzerland). Bacteria from the S. typhimurium

ALK3 (BMPR1A) [3] = target: T2, ALK3 (BMPR1A) (Homo sapiens, UniProt P36894); assay: KINOMEscan competitive binding assay (Kd); settings: analyses herein; read-out: Binding constant (Kd) ALK3 (BMPR1A)
T2 construct: purchased Eurofins/DiscoveryX (KINOMEscan service)
T2 sequence (P36894 24-532): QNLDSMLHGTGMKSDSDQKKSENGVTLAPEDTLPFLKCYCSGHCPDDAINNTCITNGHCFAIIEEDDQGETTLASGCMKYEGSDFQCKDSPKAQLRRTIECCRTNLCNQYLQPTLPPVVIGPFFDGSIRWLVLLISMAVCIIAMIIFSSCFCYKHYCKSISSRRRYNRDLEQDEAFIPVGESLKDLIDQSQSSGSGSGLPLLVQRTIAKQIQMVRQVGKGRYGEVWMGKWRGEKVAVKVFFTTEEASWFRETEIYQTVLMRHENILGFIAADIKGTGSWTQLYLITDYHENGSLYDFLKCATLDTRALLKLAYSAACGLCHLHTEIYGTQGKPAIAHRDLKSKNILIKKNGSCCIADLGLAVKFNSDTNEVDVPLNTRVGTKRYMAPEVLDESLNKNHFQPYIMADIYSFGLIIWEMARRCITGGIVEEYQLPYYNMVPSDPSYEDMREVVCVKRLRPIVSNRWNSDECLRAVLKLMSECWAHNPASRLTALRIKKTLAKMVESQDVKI
Source text: as §1
(§2) Kinase affinity and selectivity
(§3) Kd values were obtained by an 11 -point
(§4) (BMPR1A), ALK4 (ACVR1B), ALK6 (BMPR1B), ACVR2B and TGFβ R2. […]

ACVR2B = target: T3, ACVR2B (Homo sapiens, UniProt Q13705); assay: KINOMEscan competitive binding assay (Kd); settings: analyses herein; read-out: Binding constant (Kd) ACVR2B
T3 construct: purchased Eurofins/DiscoveryX (KINOMEscan service)
T3 sequence (Q13705 19-512): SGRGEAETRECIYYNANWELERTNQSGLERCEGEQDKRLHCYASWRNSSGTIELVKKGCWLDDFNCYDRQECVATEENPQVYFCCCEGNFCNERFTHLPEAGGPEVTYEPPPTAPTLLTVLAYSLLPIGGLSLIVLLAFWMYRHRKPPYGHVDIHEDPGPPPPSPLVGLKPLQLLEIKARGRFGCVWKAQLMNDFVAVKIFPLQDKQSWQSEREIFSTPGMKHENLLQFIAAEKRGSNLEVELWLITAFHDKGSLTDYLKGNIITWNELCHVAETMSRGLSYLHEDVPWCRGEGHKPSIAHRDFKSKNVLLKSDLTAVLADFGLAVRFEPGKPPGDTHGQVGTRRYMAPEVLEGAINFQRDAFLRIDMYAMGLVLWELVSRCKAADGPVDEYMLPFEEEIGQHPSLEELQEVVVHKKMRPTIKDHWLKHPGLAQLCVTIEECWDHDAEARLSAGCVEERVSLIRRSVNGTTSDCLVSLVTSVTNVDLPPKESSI
Source text: as §1, §2, §3, §4

TGFBR2 [4] = target: T4, TGFBR2 (Homo sapiens, UniProt P37173); assay: KINOMEscan competitive binding assay (Kd); settings: analyses herein; read-out: Binding constant (Kd) TGFBR2
T4 construct: purchased Eurofins/DiscoveryX (KINOMEscan service)
T4 sequence (P37173 23-567): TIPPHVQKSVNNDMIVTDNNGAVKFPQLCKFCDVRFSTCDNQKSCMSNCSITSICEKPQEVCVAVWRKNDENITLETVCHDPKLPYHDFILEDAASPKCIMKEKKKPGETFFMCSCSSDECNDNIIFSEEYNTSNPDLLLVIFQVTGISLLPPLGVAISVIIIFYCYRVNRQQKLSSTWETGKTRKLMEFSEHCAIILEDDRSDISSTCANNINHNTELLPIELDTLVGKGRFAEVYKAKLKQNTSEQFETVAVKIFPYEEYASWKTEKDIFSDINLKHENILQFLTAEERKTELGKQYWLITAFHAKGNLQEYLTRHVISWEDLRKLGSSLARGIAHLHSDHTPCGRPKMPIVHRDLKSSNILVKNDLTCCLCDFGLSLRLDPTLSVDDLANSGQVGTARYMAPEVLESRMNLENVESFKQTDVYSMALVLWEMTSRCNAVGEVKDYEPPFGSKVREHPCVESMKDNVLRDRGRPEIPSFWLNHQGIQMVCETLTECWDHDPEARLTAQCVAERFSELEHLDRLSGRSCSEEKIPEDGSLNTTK
Source text: as §1, §2, §3, §4

ALK1 (ACVRL1) = target: T5, ALK1 (ACVRL1) (Homo sapiens, UniProt P37023); assay: KINOMEscan competitive binding assay (Kd); settings: analyses herein; read-out: Binding constant (Kd) ALK1 (ACVRL1)
T5 construct: purchased Eurofins/DiscoveryX (KINOMEscan service)
T5 sequence (P37023 22-503): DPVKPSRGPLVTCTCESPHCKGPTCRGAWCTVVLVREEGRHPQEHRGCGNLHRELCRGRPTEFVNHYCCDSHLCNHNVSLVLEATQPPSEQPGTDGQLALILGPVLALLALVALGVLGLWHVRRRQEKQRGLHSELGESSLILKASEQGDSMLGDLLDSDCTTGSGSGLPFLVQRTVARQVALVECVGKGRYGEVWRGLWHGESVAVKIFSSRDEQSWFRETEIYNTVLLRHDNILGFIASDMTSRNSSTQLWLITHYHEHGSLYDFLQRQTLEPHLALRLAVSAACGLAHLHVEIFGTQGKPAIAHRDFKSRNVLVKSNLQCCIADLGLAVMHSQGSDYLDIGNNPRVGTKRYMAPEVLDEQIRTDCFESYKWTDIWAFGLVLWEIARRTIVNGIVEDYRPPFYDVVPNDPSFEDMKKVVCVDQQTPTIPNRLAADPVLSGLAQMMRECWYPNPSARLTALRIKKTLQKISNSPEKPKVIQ
Source text: as §1, §2, §3, §4

ALK2 (ACVR1) [5] = target: T6, ALK2 (ACVR1) (Homo sapiens, UniProt Q04771); assay: KINOMEscan competitive binding assay (Kd); settings: analyses herein; read-out: Binding constant (Kd) ALK2 (ACVR1)
T6 construct: purchased Eurofins/DiscoveryX (KINOMEscan service)
T6 sequence (Q04771 21-509): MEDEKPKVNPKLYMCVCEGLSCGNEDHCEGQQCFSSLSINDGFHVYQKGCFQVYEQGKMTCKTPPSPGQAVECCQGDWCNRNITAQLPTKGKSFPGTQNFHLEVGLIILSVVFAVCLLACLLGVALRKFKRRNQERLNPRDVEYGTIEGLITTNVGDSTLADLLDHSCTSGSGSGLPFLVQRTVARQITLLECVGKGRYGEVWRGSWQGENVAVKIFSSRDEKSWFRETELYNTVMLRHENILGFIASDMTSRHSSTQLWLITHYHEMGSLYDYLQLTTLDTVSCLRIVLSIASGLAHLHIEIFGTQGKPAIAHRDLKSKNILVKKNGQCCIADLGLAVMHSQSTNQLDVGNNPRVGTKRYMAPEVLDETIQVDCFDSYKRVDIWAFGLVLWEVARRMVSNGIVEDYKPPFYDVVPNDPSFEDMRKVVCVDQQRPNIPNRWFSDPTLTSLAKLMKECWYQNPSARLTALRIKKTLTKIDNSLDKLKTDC
Source text: as §1, §2, §3, §4

ALK6 (BMPR1B) = target: T7, ALK6 (BMPR1B) (Homo sapiens, UniProt O00238); assay: KINOMEscan competitive binding assay (Kd); settings: analyses herein; read-out: Binding constant (Kd) ALK6 (BMPR1B)
T7 construct: purchased Eurofins/DiscoveryX (KINOMEscan service)
T7 sequence (O00238 14-502): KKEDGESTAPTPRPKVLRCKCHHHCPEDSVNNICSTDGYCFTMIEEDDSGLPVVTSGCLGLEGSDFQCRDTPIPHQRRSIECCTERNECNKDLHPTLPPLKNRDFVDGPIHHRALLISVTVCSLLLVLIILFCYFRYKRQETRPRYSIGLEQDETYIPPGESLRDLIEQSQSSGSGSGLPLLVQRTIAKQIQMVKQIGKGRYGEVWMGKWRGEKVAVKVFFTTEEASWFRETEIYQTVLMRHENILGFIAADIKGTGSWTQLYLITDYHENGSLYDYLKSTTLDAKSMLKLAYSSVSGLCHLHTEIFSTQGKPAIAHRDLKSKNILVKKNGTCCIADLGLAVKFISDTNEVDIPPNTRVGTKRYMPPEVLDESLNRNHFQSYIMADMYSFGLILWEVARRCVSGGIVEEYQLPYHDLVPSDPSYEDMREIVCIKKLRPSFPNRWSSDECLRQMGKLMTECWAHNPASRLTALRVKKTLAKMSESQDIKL
Source text: as §1, §2, §3, §4

ALK3 (BMPR1A) [6] = target: T2, ALK3 (BMPR1A); design: method as in earlier work; settings: reported data ref 15; read-out: Binding constant (Kd) ALK3 (BMPR1A); cited from earlier work
TGFBR2 [7] = target: T4, TGFBR2; design: method as in earlier work; settings: reported data ref 15; read-out: Binding constant (Kd) TGFBR2; cited from earlier work
ALK5 = settings: cited from earlier work
ALK4 (ACVR1B) = target: T8, ALK4 (ACVR1B) (Homo sapiens, UniProt P36896); settings: reported data ref 15, read-out: Binding constant (Kd) ALK4 (ACVR1B), cited from earlier work
T8 sequence (P36896 24-505): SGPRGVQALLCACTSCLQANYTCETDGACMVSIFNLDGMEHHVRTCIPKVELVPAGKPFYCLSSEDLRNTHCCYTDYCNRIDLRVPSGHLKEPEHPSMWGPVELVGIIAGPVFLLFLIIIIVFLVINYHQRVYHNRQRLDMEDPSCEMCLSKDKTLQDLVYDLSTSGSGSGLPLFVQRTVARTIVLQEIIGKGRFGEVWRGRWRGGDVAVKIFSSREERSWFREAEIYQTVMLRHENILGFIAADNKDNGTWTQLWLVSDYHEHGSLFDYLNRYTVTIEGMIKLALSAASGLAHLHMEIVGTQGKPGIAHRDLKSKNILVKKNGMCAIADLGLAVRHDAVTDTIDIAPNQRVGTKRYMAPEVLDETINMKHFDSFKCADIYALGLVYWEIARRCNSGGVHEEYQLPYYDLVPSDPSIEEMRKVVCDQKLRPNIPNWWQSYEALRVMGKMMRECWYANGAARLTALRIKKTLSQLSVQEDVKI

[8] = Literature oral pharmacokinetics in mice; type: in vivo; settings: female, mouse, plasma, mice (♀ CD-1), 75 mg/kg, estimated using AUClast of ref 20
Source text: Table 2 Pharmacokinetics of HYL001 in Preclinical Species after Oral Administration ^a | column: Cl/F (mL/min/kg)

ALK2 (ACVR1) [9] = target: T6, ALK2 (ACVR1); design: method as in earlier work; settings: reported data ref 15; read-out: Binding constant (Kd) ALK2 (ACVR1); cited from earlier work

| SMILES | hERG inhibition (in words) (hERG potassium channel) | Protein expression of TGFβ targets (phospho-SMAD2, CTHRC1, Caldesmon) [1] | Fold higher ALK5 IC50 than that of vactosertib (ALK5 (TGFBR1)) | Fold increase (in vitro potency) compared to galunisertib (ALK5 (TGFBR1); ALK5 IC50) [fold] | IC50 (ALK5 (TGFBR1); recombinant TGFBR1 fragment 200–end (T204D), read-out: kinase inhibition IC50, ALK5 (TGFBR1)) [nM] | Inhibition of binding to any safety panel target [2] [%] | Kd (ALK3 (BMPR1A) [3]) [nM] | Kd (ACVR2B) [nM] | Kd (TGFBR2 [4]) [nM] | Kd (ALK1 (ACVRL1)) [nM] | Kd (ALK2 (ACVR1) [5]) [nM] | Kd (ALK6 (BMPR1B)) [nM] | Kd (ALK3 (BMPR1A) [6]) [nM] | Kd (TGFBR2 [7]) [nM] | IC50 (ALK5) [nM] | Kd (ALK4 (ACVR1B); listed as Galunisertib) [nM] | Kd (ALK4 (ACVR1B)) [nM] | CL/F [8] [mL/min/kg] | Kd (ALK2 (ACVR1) [9]) [nM] |
| --- | --- | --- | --- | --- | --- | --- | --- | --- | --- | --- | --- | --- | --- | --- | --- | --- | --- | --- | --- |
| Cc1cccc(-c2nn3c(c2-c2ccnc4ccc(O)cc24)CCC3)n1 [HYL001, 4-(2-(6-Methylpyridin-2-yl)-5,6-dihydro-4H-pyrrolo[1,2-b]pyrazol-3-yl)quinolin-6-ol] | low inhibition | marked decrease | around 3.5 fold | ~2.5 | 177 | ≤ 50 | 6900 | 100 | 2000 | 11000 | 7500 | 160 |  |  |  |  |  |  |  |
| Cc1cccc(-c2nn3c(c2-c2ccnc4ccc(C(N)=O)cc24)CCC3)n1 [galunisertib] |  |  |  |  |  |  |  |  |  |  |  |  | 16800 | 208 | […] | 77.7 | ~78 | 402 | 35700 |
